Cc1cnc(NC(=O)C2=C(O)c3ccccc3S(=O)(=O)N2C)s1
solubility (mole fraction)
Settings	293.15 K	298.15 K	303.15 K	308.15 K	313.15 K
in transcutol	0.0012	0.0013	0.0014	0.00151	0.00165
in water	1.09e-06	1.14e-06	1.19e-06	1.26e-06	1.33e-06
